Five molecules from US7723058B2, “Test system for the determination of in-vivo active hemostasis proteases in biological fluids and/or the usage thereof to determine the in-vivo activation of hemostasis” (priority 2001, dated 2010) can be followed below.

What all share (assay type): biochemical
Series [1] has as its target T1, bovine thrombin (Bos taurus, UniProt P00735).
T1 construct: activity of thrombin in plasma after addition of 120 mlU/ml thrombin (F IIa); purchased DadeBehring
Briefly: Determination of the Km-value for thrombin in plasma. As to conditions: thrombin in plasma after addition of 120 mlU/ml thrombin; 37° C.; read-out: substrate concentration at halfmaximal velocity (Km-value). As to the method: 1. Normal EDTA-plasma with 250 mM arginine, pH 8.7, and 2. normal EDTA-plasma, supplemented with 120 mlU/ml bovine thrombin and 30 min thereafter with 250 mM arginine, pH 8.7, were incubated with 50 μl HD-CHG-Ala-Arg-pNA (0-6.67 mM final) in aqua dest, Delta A/3 h (37° C.) was measured and the value of 1. was subtracted from the value of 2. The resulting difference corresponds to the activity of thrombin in plasma after addition of 120 mlU/ml thrombin (F IIa). Result the maximal enzyme velocity is 800 mA/3 h the substrate concentration at halfmaximal velocity (Km-value) is 0.3 mM.

The test system of series [2] is normal plasma. Put plainly: Inhibition of the 1-step CPC by arginine. As to conditions: plasmatic concentrations of arginine above 100 mM. The procedure:
The CPC-test was performed in the 1-step mode as follows: 100 μl normal plasma, containing increasing concentrations of arginine (0-300 mM), pH 8.7 were incubated with 50 μl 1.7 mM HD-CHG-Ala-Arg-pNA in aqua dest. and 50 μl Pathromtin SL®, The increase in absorbance/t (t=0-10 min RT) was determined. Result: at plasmatic concentrations of arginine above 100 mM the Pathromtin SL®-CPC is decreased to 0% (compared to a normal plasma without arginine=100%),

Series [3] has as its system Control Plasma N® (CPN). Put plainly: Comparison of different CPC-approaches. To be noted: CPN; approaches B) and C). The procedure: For n=22 citrated plasmas of patients and the Control Plasma N® (CPN) the following CPC-approaches were performed, 2-step-approaches A, B, C and 1-step-approaches D, E, F. • A) 50 μl Plasma+25 μl Pathromtin SL® (SiO2) • B) 50 μl Plasma+25 μl Pathromtin® (kaolin, in H2O twofold diluted) • C) 50 μl Plasma+25 μl Neothromtin® (ellagic acid)
3 min RT time of activation; +25 μl 1.7 mM HD-CHG-Ala-Arg-pNA, 750 mM arginine, 6.4 g/l EDTA, pH 8.7 • D) 50 μl Plasma+25 μl 1.7 mM CH3SO2-D-CHG-Gly-Arg-pNA • E) 50 μl Plasma+13 μl 1.5 M arginine, pH 8.7, +50 μl 1.7 mM CH3SO2-D-CHG-Gly-Arg-pNA • F) 50 μl Plasma+25 μl 1.7 mM HD-CHG-Ala-Arg-pNA in H2O+25 μl Pathromtin SL®
Determination of delta A at 405 nm (RT). The respective changes in extinction were correlated with each other. Result: Pathromtin SL®-2-step-CPC correlated with Pathromtin SL®-1-step-CPC with r=0.798 (delta A/13 min (RT) for CPN in 2-step-CPC=354 mA; delta A/2 min (RT) for CPN-547 mA, i.e. in the 1-step-CPC a […] higher Thrombin-Like Activity is generated compared with the 2-step-CPC; the corresponding values for approaches B) and C) are approx. 30% or 20% lower, respectively. […] Thus, even in arginine-stabilized plasma the amidolytic activity against CH3SO2-D-CHG-Gly-Arg-pNA can reliably be determined, what is valid for chromogenic substrates with a CH3SO2-group.

Series [4] concerns normal plasma (citrated). Briefly: Optimization of the test concentration of contact phase activator in the CPC. As to the method:
To optimize the contact phase activator in the CPC 100 μl • a) Neothromtin® (0.6 g/l ellagic acid (3 ml vial Dade Behring in 1.5 ml H2O) • b) Pathromtin® (5 g/l Kaolin, Dade Behring) • c) Pathromtin SL® (SiO2, Dade Behring) in 1:1, 1:2, 1:4, 1:8, 1:16, 1:32, 1:64, 1:128 dilution with H2O or for control 100 μl H2O were incubated with 100 μl 1.5 mmol/l HD-CHG-Ala-Arg-pNA in PBS and with 100 μl normal plasma (citrated) for 4 min (RT). The increase In extinction (405 nm)/4 min was determined.

Series [5] has as its system active trypsin. Briefly: Detection of active trypsin in plasma, aprotinin titration, pancreatitis plasma. As to conditions: 50 min 37° C. The procedure: (§1) 25 μl plasma of a pancreatitis-patient (citrated), 25 μl CPN, 25 μl 36 pkat/ml bovine Factor Xa in PBS, 0.1% Triton X 100®, were incubated with 25 μl assay buffer, containing 600 mM NaHCO3, ph 8.7 with and without 600 mM arginine, 25 μl 25 mM chloramines T®, 25 μl 3 mM N-α-Z-D-Arg-Gly-Arg-pNA 2HCl (S-2765®; Chromogenix, Mölndal, Sweden) and 25 μl Aprotinin (0, 2, 20, 200, 2000, 20000 KIU/ml) for 50 min at 37° C. and the increase in extinction at 405 nm during this incubation time was determined with a microtiterplate-photometer.

The subject of series [6] is CPN. Put plainly: Aprotinin titration in CPN. To be noted: 50 min 37° C. As to the method:
as §1

Series [7] concerns the target T2, bovine Factor Xa (Bos taurus, UniProt P00743).
T2 construct: 25 μl 36 pkat/ml bovine Factor Xa in PBS
Briefly: Aprotinin on pure factor Xa. To be noted: 36 pkat/ml bovine Factor Xa; substrate S-2765. The procedure:
[…], 0.1% Triton X 100®, were incubated with 25 μl assay buffer, containing 600 mM NaHCO3, ph 8.7 with and without 600 mM arginine, 25 μl 25 mM chloramines T®, 25 μl 3 mM N-α-Z-D-Arg-Gly-Arg-pNA 2HCl (S-2765®; Chromogenix, Mölndal, Sweden) and 25 μl Aprotinin (0, 2, 20, 200, 2000, 20000 KIU/ml) for 50 min at 37° C. and the increase in extinction at 405 nm during this incubation time was determined with a microtiterplate-photometer.

Series [8] deals with normal EDTA-Plasma supplemented with bovine thrombin (pathoplasma). Put plainly: GACA, optimization of the concentration of substrate, pathoplasma. As to the method: Before and after the incubation the extinction at 405 nm was determined.
The ratio of the extinctions of pathoplasma and normal plasma approximates the value of 1 at final substrate concentrations >1.5 mM. The higher this value the more specific is the assays for pathologic activation of hemostasis, here imitated by addition of 120 mlU/ml bovine thrombin. This ratio reaches maximal values at final substrate concentrations ≦1 mM. However, the maximal change in extinction decreases at low substrate concentrations, especially at substrate concentrations below 0.3 mM, i.e. substrate exhaustion occurs. Therefore the final substrate concentration in the GACA should be between 0.3 mM and 1.0 mM, preferentially between 0.5 mM and 0.8 mM, particularly at 0.56 mM. At this final substrate concentration the assay is very specific for activation of hemostasis, and consequently the determination of CPC (approach B) can be neglected where appropriate. Thus, the GACA-value corresponds to the uGACA-value at a final substrate concentration of up to 0.8 mM, i.e. GACA=approach A (without correction is by approach B). After addition of thrombin to EDTA-plasma 90% of thrombin is inactivated, in the GACA only 10% of the added enzyme activity can be detected.

A short description of series [9]: Standardization of GACA with a pure enzyme-reagent / FEIBA. As to conditions: pure enzyme in 500 mM arginine, 2% Hämaccel, 0.1% Triton X 100. As to the method: The GACA was performed with 100 μl pure bovine thrombin (0-18 mlU/ml; DadeBehring), pure bovine Factor Xa (0-150 pkat/ml) or a Factor-Eight-Inhibitor-Bypassing-Activity-concentrate (0-2.6 units/ml; FEIBA®, Immuno, Wien) in 500 mM arginine, 2% Hämaccel®, 0.1% Triton X 100® (substrate here=HD-CHG-Ala-Arg-pNA. Additional samples were Control Plasma N® (CPN, DadeBehring) or CPN supplemented with FEIBA (0-2.6 units/ml). The incubation was varied from 0 to 4 h. The respective change in extinction was measured. Result: There appears a linear relationship between the thrombin- or factor Xa-concentration used and the resulting change in extinction, and also between incubation time and change in extinction. 6 mlU/ml IIa or 45 pkat/ml Xa result in a change in extinction, that corresponds to that of normal plasma (100% GACA). Thus, the GACA can be calibrated and standardized with pure thrombin- or factor Xa-reagent. CPN with 2.6 units/ml FEIBA has a GACA-value of approx. 200%, i.e. this addition of FEIBA to CPN increases the GACA-value from 100% to […].

[10] abbreviates: 25 μl 2 KIU/ml, absence of arginine.
Where [11] appears, read: 25 μl 2 KIU/ml, presence of arginine.
[12] abbreviates: 25 μl 20 KIU/ml, absence of arginine.
The mark [13] stands for this setting: 25 μl 20 KIU/ml, presence of arginine.
Setting [14] is: 25 μl 200 KIU/ml, absence of arginine.
[15] abbreviates: 25 μl 200 KIU/ml, presence of arginine.
Where [16] appears, read: 25 μl 2000 KIU/ml, absence of arginine.
[17] abbreviates: 25 μl 2000 KIU/ml, presence of arginine.
Setting [18] is: 25 μl 20000 KIU/ml, absence of arginine.
[19] abbreviates: 25 μl 20000 KIU/ml, presence of arginine.

Where a SMILES comes first, the peptide text is derived from it. [ ]: non-standard residue; d: D form. The star is where a group is joined. dChg = N[C@@H](C(=O)O)C1CCCCC1; pNA = O=[N+]([O-])c1ccc(N*)cc1

T2 sequence (P00743 234-492 limits assumed): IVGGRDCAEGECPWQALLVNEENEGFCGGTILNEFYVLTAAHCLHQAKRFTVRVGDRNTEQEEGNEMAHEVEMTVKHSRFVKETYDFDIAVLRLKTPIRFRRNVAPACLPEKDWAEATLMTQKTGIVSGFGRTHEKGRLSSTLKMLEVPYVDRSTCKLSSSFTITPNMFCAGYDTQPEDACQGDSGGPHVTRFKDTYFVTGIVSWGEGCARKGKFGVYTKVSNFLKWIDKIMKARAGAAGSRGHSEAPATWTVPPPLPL
T2 sequence (P00743 41-180 partner limits assumed): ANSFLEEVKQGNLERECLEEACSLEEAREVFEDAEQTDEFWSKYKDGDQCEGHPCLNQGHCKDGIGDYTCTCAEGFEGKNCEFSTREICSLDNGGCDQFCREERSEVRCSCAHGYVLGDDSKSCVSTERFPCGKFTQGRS

With `C[C@H](NC(=O)[C@H](N)C1CCCCC1)C(=O)N[C@@H](CCCNC(=N)N)C(=O)Nc1ccc([N+](=O)[O-])cc1` [HD-CHG-Ala-Arg-pNA, HD-CHG-Ala-Arg-pNA.2AcOH] (H-[dChg]-Ala-Arg-pNA), the Km in series [1] came out at 300 µM.

`N=C(N)NCCC[C@H](N)C(=O)O` [arginine]: in series [2], the “Pathromtin SL®-CPC compared to a normal plasma without arginine=100%” value is listed as 0%.

As for `O=c1oc2c(O)c(O)cc3c(=O)oc4c(O)c(O)cc1c4c23` [ellagic acid], the “2-step-CPC value lower than with Pathromtin SL®” value in [3] is recorded as ~20%. Also, in series [4] (CPC, 4 min RT), the “test concentration at optimal activity of protease” value was 0.05 g/L. The “delta A” value in series [4] (at optimal test concentration of contact phase activator, 405 nm, RT) stood at 1443 mA/4 min.

As to aprotinin, the increase of extinction came out at 733 mA in [5] (setting [10]); 778 mA in series [5] (setting [11]); 715 mA in [5] (setting [12]); 709 mA in series [5] (setting [13]); 531 mA in series [5] (setting [14]); 685 mA in [5] (setting [15]). Also, the increase of extinction turned out to be 294 mA in series [5] (setting [16]), 497 mA in series [5] (setting [17]), 103 mA in [5] (setting [18]) and 259 mA in [5] (setting [19]). Further, the “increase in extinction in the CPN” value is listed as 134 mA in series [6] (setting [10]); 133 mA in series [6] (setting [11]); 135 mA in series [6] (setting [12]); 126 mA in series [6] (setting [13]); 108 mA in series [6] (setting [14]); 126 mA in series [6] (setting [15]). The “increase in extinction in the CPN” value in [6] (setting [16]) worked out at 118 mA; in [6] (setting [17]) it was 125 mA; in series [6] (setting [18]), 124 mA; in series [6] (setting [19]), 123 mA. In series [7], the “inhibition of pure factor Xa” value is “not inhibited”.

“thrombin: pure bovine thrombin (DadeBehring)”: in series [8], the “thrombin inactivated after addition to EDTA-plasma” value was 90%. The “added enzyme activity that can be detected in the GACA” value in series [8] (after addition of thrombin to EDTA-plasma) is on record as 10%. Further, in [9], the “concentration giving a change in extinction that corresponds to normal plasma (100% GACA)” value was 6 mlU/ml.
